{"source": "patent US8158828B2", "about": "“Nuclear receptor binding agents” (priority 2005, dated 2012)", "key": {"ER-α": {"molecular_target": "T1, ER-α (Rattus norvegicus, UniProt P06211)", "T1 sequence (P06211 1-600)": "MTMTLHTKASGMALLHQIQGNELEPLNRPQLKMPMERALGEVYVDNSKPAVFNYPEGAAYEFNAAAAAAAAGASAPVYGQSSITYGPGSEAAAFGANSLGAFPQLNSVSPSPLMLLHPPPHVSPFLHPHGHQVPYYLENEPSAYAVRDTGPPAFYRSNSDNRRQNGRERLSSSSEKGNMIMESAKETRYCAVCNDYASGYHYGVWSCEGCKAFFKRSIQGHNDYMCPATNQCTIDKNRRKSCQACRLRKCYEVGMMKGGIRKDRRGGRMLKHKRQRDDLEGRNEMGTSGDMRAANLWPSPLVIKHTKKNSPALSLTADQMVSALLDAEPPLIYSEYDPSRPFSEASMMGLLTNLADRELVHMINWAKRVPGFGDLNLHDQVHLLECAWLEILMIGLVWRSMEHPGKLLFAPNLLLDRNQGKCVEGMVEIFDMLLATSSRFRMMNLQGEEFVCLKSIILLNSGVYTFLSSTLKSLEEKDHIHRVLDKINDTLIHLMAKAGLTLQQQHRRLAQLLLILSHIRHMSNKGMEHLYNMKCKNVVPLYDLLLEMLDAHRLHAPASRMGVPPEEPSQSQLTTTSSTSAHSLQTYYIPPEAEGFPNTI", "assay": "ER-α transactivation, ERE-LUC in COS or 293 cells", "assay_type": "cell-based", "set-up": "% estardiol activity, ER-α: dose or concentration left out as unconfirmed", "conditions": "for EC50: ER alpha agonists; for IC50: ER alpha antagonists", "procedure": "FIG. 1: Effects of the indicated compounds on ER-α transactivation. COS or 293 cells plated in DME without phenol red+10% charcoal stripped fetal bovine serum (csFBS) at 90,000 cells per well of 24 well plates were transfected with 0.25 μg ERE-LUC, 0.02 μg CMV-LUC (Renilla) and 25 ng of ER-α by lipofectamine. Twenty four hours after transfection, the cells were treated as indicated in the figure, harvested 48 hrs after transfection and were assayed for firefly and renilla luciferase.\nFIG. 5: Effect of the indicated compounds on ER-α transactivation. COS or 293 cells plated in DME without phenol red+10% csFBS at 90,000 cells per well of a 24 well plate were transfected with 0.25 μg ERE-LUC, 0.02 μg CMV-LUC (Renilla) and […] of ER-α by lipofectamine. Twenty four hours after transfection, the cells were treated as indicated in the figure, harvested 48 hrs after transfection and were assayed for firefly and renilla luciferase.\nFIG. 9: Effect of the indicated compounds on ER-α transactivation. COS or 293 cells plated in DME without phenol red+10% csFBS per well of a 24 well plate were transfected with 0.25 μg ERE-LUC, 0.02 μg CMV-LUC (Renilla) and 25 ng of ER-α by lipofectamine. Twenty four hours after transfection, the cells were treated as indicated in the figure, harvested 48 hrs after transfection and were assayed for firefly and renilla luciferase.\nAlso 25 ng of ER-α (FIGS. 1, 5, and 9), 50 ng of ER-β (FIGS. 2, 6 and 10) or 12.5 ng of AR (FIG. 3) were introduced by lipofectamine. All the receptors were cloned from rat tissue into the PCR3.1 vector backbone. […] Cells were harvested 48 hrs after transfection, and assayed for firefly and Renilla luciferase activity.\nAlso 25 ng of ER-α), 50 ng of ER-β or 12.5 ng of AR were introduced by lipofectamine. All the receptors were cloned from rat tissue into the PCR3.1 vector backbone. […] Cells were harvested 48 hrs after transfection, and assayed for firefly and Renilla luciferase activity."}, "ER-β": {"molecular_target": "T2, ER-β (Rattus norvegicus, UniProt Q62986)", "T2 construct": "expressed in transfected cells; host or cells: COS or 293 cells", "T2 sequence (Q62986 whole entry)": "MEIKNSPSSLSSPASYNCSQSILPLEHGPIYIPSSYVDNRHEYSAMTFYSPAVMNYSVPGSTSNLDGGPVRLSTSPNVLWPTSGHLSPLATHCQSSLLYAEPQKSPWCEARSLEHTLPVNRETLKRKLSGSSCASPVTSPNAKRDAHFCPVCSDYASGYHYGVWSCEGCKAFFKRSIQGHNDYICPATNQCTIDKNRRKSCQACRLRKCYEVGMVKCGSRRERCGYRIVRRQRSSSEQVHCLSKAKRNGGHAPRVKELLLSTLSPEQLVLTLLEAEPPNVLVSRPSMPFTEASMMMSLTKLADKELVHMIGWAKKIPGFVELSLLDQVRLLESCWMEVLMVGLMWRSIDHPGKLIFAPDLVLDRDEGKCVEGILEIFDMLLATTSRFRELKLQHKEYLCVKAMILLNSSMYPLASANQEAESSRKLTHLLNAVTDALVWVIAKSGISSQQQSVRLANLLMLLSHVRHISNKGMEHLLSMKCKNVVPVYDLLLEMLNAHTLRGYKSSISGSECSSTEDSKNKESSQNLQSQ", "assay": "ER-β transactivation, ERE-LUC in COS or 293 cells", "assay_type": "cell-based", "set-up": "% estardiol activity, ER-β: dose or concentration left out as unconfirmed", "conditions": "for ER-β LUC expression, compound alone: COS or 293 cells", "procedure": "FIG. 2: Effect of the indicated compounds on ER-β transactivation. COS or 293 cells plated in DME without phenol red+10% csFBS at 90,000 cells per well of a 24 well plate were transfected with 0.25 μg ERE-LUC, 0.02 μg CMV-LUC (Renilla) and 50 ng of ER-β by lipofectamine. Twenty four hours after transfection, the cells were treated as indicated in the figure, harvested 48 hrs after transfection and were assayed for firefly and renilla luciferase.\nFIG. 6: Effect of the indicated compounds on ER-β transactivation. COS or 293 cells plated in DME without phenol red+10% csFBS at 90,000 cells per well of a 24 well plate were transfected with 0.25 μg ERE-LUC, 0.02 μg CMV-LUC (Renilla) and 50 ng of ER-β by lipofectamine. Twenty four hours after transfection, the cells were treated as indicated in the figure, harvested 48 hrs after transfection and assayed for firefly and renilla luciferase.\nFIG. 10: Effect of the indicated compounds on ER-β transactivation. COS or 293 cells plated in DME+10% csFBS at 90,000 cells per well of a 24 well plate were transfected with 0.25 μg ERE-LUC, 0.02 μg CMV-LUC (Renilla) and 50 ng of ER-β by lipofectamine. Twenty four hours after transfection, the cells were treated as indicated in the figure, harvested 48 hrs after transfection and were assayed for firefly and renilla luciferase.\n(§1) All the receptors were cloned from rat tissue into the PCR3.1 vector backbone. […] Cells were harvested 48 hrs after transfection, and assayed for firefly and Renilla luciferase activity.\nas §1"}, "[1]": {"assay": "Metabolic stability in human liver microsomes", "conditions": "1 μM substrate, 0.5 mg/mL microsomes", "procedure": "Each substrate or reference control was dissolved at a concentration of 10 mM in DMSO, from which a 5 μM spiking solution was prepared by dilution in water. Substrates (1 μM) were incubated in the presence of human liver microsomes (Xenotech LLC, Kansas City Mo.) at 0.5 mg/mL fortified with an NADPH regenerating system at 37° C. and pH 7.4. The NADPH regenerating system consisted of glucose-6-phosphate dehydrogenase (1 units/mL) in 0.05M K2HPO4. Duplicate incubations were performed in 96-well polypropylene cluster tubes in a final volume of 250 μL per reaction. At 0, 2, 4, 6, 10, 30, and 60 minutes a stop solution (300 μL acetonitrile) was added to aliquots of the reaction mixture. Precipitated protein was removed by centrifugation (3000 rpm for 15 minutes) and the supernatants were transferred to clean 96-well plates for analysis.\nThe samples were injected onto a Phenomenex Luna hexylphenyl 50×2 mm i.d. 5 uM, column fitted with a guard column. An isocratic mobile phase consisting of 50% acetonitrile and 0.1% formic acid in water was used at a flow rate of 0.3 mL/min. The protonated molecular ion (M+H)^+ of the analyte was monitored by MDS/Sciex API 4000QTrap triple quadrupole mass spectrometer using electrospray positive mode ionization with a temperature of 500° C. and a spray voltage of 4000V. Total analysis time was 1.5 min per sample.\nMetabolic stability was defined as the amount of substrate metabolized by the incubation with hepatic microsomes and expressed as a percentage of the initial amount of substrate (% remaining) based on peak area. Initial substrate concentration for each analyte was 1 μM. The initial peak area of each substrate was determined at time zero and metabolic stability was assessed based on the change in analyte peak area from time 0 min to a single fixed timepoint for each sample (2-60 min, representative timepoints are shown in Table 2 below)."}, "[2]": {"conditions": "ER beta agonists, read-out: EC50 (ER-β)"}}, "note": "Like-named read-outs stand apart in the source and are kept apart here.", "data": [{"smiles": "O=C(c1ccc(O)cc1)N(c1ccc(O)cc1)c1ccc(-c2ccccc2)cc1", "note": "[Compound 3v, N-biphenyl-4-yl-4-hydroxy-N-(4-hydroxyphenyl)-benzamide]", "values": [{"measurement": "EC50", "setting": "ER-α", "value": 22.4, "unit": "nM"}]}, {"smiles": "Cc1ccc(C(=O)N(c2ccc(O)cc2)c2ccc(O)cc2)cc1C", "note": "[Compound 10d, N,N-bis(4-hydroxyphenyl)-3,4-dimethylbenzamide]", "values": [{"measurement": "% estardiol activity, ER-α", "setting": "ER-α", "value": 21.4, "unit": "%"}, {"measurement": "EC50", "setting": "ER-β; [2]", "value": 85, "unit": "nM"}]}, {"smiles": "CCCCCc1ccc(C(=O)N(c2ccc(O)cc2)c2ccc(O)cc2)cc1", "note": "[Compound 11p, N,N-bis(4-hydroxyphenyl)-4-pentylbenzamide]", "values": [{"measurement": "EC50", "setting": "ER-β; [2]", "value": "< 10", "unit": "nM"}]}, {"smiles": "O=C(c1ccc(O)cc1)N(c1ccccc1)c1cccc(O)c1", "note": "[Compound 3j, 4-hydroxy-N-(3-hydroxyphenyl)-N-phenyl-benzamide]", "values": [{"measurement": "% estardiol activity, ER-α", "setting": "ER-α", "value": 62, "unit": "%"}]}, {"smiles": "Cl.O=C(c1cccc(OCCN2CCCCC2)c1)N(c1ccccc1)c1ccccc1", "note": "[Compound 4d, N,N-diphenyl-[3-(2-piperidinylethoxy)]-benzamide hydrochloride]", "values": [{"measurement": "% estardiol activity, ER-α", "setting": "ER-α", "value": 16.8, "unit": "%"}, {"measurement": "% estardiol activity, ER-β", "setting": "ER-β", "value": 30.7, "unit": "%"}]}, {"smiles": "O=C(c1cccc2ccccc12)N(c1ccc(O)cc1)c1ccc(OCCN2CCCCC2)cc1", "note": "[Compound 11f, N-(4-hydroxyphenyl)-N-(4-(2-(piperidin-1-yl)ethoxy)phenyl)-1-naphthamide]", "values": [{"measurement": "IC50", "setting": "ER-α", "value": 69, "unit": "nM"}]}, {"smiles": "O=C(c1cccc(F)c1)N(c1ccc(O)cc1)c1ccc(OCCN2CCCCC2)cc1", "note": "[Compound 11g, 3-fluoro-N-(4-hydroxyphenyl)-N-(4-(2-(piperidin-1-yl)ethoxy)phenyl)benzamide]", "values": [{"measurement": "IC50", "setting": "ER-α", "value": 16, "unit": "nM"}]}, {"smiles": "Oc1ccc(CN(c2ccc(O)cc2)c2ccc(F)cc2)cc1", "note": "[Compound 10x, 4-((4-fluorophenyl)(4-hydroxybenzyl)amino)phenol]", "values": [{"measurement": "EC50", "setting": "ER-α", "value": 16, "unit": "nM"}]}, {"smiles": "O=C(c1ccccc1)N(c1ccccc1)c1ccc(O)cc1", "note": "[Compound 3g, N-(4-hydroxyphenyl)-N-phenyl-benzamide]", "values": [{"measurement": "% estardiol activity, ER-α", "setting": "ER-α", "value": 62.5, "unit": "%"}, {"measurement": "ER-β LUC expression, compound alone", "setting": "ER-β", "value": "most potent in stimulating ER-β"}]}, {"smiles": "O=C(c1cccc(O)c1)N(c1ccc(O)cc1)c1ccc(O)cc1", "note": "[Compound 3b, 3-hydroxy-N-bis-(4-hydroxyphenyl)-benzamide]", "values": [{"measurement": "EC50", "setting": "ER-α", "value": 10, "unit": "nM"}]}, {"smiles": "O=C(c1ccc(F)cc1)N(c1ccc(O)cc1)c1ccc(O)cc1", "note": "[Compound 3k, N,N-bis(4-hydroxyphenyl)-4-fluoro-benzamide]", "values": [{"measurement": "EC50", "setting": "ER-α", "value": 12, "unit": "nM"}, {"measurement": "% Remaining 0 min", "setting": "[1]; 0 min", "value": 100, "unit": "%"}, {"measurement": "% Remaining 10 min", "setting": "[1]; 10 min", "value": 119, "unit": "%"}, {"measurement": "% Remaining 30 min", "setting": "[1]; 30 min", "value": 120, "unit": "%"}, {"measurement": "% Remaining 60 min", "setting": "[1]; 60 min", "value": 94, "unit": "%"}]}, {"smiles": "Cc1cccc(CN(c2ccc(O)cc2)c2ccc(O)cc2)c1C", "note": "[Compound 10t, 4,4′-(2,3-dimethyl-benzylazanediyl)diphenol]", "values": [{"measurement": "IC50", "setting": "ER-β", "value": 17, "unit": "nM"}]}, {"smiles": "O=C(c1ccc(O)cc1)N(c1ccc(O)cc1)C1CCCCC1", "note": "[Compound 10w, N-cyclohexyl-4-hydroxy-N-(4-hydroxyphenyl)benzamide]", "values": [{"measurement": "% estardiol activity, ER-α", "setting": "ER-α", "value": 21.9, "unit": "%"}]}, {"smiles": "O=C(c1ccc(O)c(O)c1)N(c1ccc(O)cc1)c1ccc(O)cc1", "note": "[Compound 10m, 3,4-dihydroxy-N,N-bis(4-hydroxyphenyl)-benzamide]", "values": [{"measurement": "IC50", "setting": "ER-α", "value": "< 10", "unit": "nM"}]}, {"smiles": "Cc1cccc(C(=O)N(c2ccc(O)cc2)c2ccc(O)cc2)c1C", "note": "[Compound 10j, N,N-bis(4-hydroxyphenyl)-2,3-dimethylbenzamide]", "values": [{"measurement": "IC50", "setting": "ER-β", "value": 20, "unit": "nM"}]}, {"smiles": "Cc1cc(C(=O)N(c2ccc(O)cc2)c2ccc(O)cc2)ccc1O", "note": "[Compound 10n, 4-hydroxy-N,N-bis(4-hydroxyphenyl)-3-methylbenzamide]", "values": [{"measurement": "IC50", "setting": "ER-β; ER beta antagonist, read-out: IC50 (ER-β)", "value": 47, "unit": "nM"}]}, {"smiles": "CCCc1ccc(C(=O)N(c2ccc(O)cc2)c2ccc(O)cc2)cc1", "note": "[Compound 10l, N,N-bis(4-hydroxyphenyl)-4-propylbenzamide]", "values": [{"measurement": "% estardiol activity, ER-α", "setting": "ER-α", "value": 32, "unit": "%"}, {"measurement": "EC50", "setting": "ER-β", "value": 27, "unit": "nM"}]}, {"smiles": "O=C(c1ccc(O)cc1)N(c1ccccc1)c1ccc(O)cc1", "note": "[Compound 3i, 4-hydroxy-N-(4-hydroxyphenyl)-N-phenyl-benzamide]", "values": [{"measurement": "% estardiol activity, ER-α", "setting": "ER-α", "value": 77.8, "unit": "%"}, {"measurement": "ER-α activity (luciferase expression), compound alone", "setting": "ER-α; COS or 293 cells", "value": "most potent in stimulating ER-α"}, {"measurement": "ER-β LUC expression, compound alone", "setting": "ER-β", "value": "most potent in stimulating ER-β"}]}, {"smiles": "CCCc1ccc(C(=O)N(c2ccc(O)cc2)c2ccc(OCCN3CCCCC3)cc2)cc1", "note": "[Compound 10o, N-(4-hydroxyphenyl)-N-(4-(2-(piperidin-1-yl)ethoxy)phenyl)-4-propylbenzamide]", "values": [{"measurement": "% estardiol activity, ER-α", "setting": "ER-α", "value": 12, "unit": "%"}, {"measurement": "inhibition of estradiol (E2) induced ER-α activity (luciferase expression)", "setting": "ER-α; COS or 293 cells, with estrogen", "value": "inhibited estrogen stimulated luciferase expression"}]}, {"smiles": "O=C(c1ccc(O)c(F)c1)N(c1ccccc1)c1ccc(O)cc1", "note": "[Compound 10f, 3-fluoro-4-hydroxy-N-(4-hydroxyphenyl)-N-phenylbenzamide]", "values": [{"measurement": "% estardiol activity, ER-α", "setting": "ER-α", "value": 85, "unit": "%"}, {"measurement": "EC50", "setting": "ER-β", "value": 42, "unit": "nM"}]}]}
